The test concerns the target T1, human ribonucleotide reductase (hRR) (Homo sapiens, UniProt P23921).
T1 construct: Preparation of cell extract containing human ribonucleotide reductase (hRR); endogenous in cells; host or cells: HeLa cells (ATCC CCL 2.2); extract cleared with streptomycin sulphate, 50% ammonium sulphate cut, diafiltered
T1 sequence (P23921 1-792): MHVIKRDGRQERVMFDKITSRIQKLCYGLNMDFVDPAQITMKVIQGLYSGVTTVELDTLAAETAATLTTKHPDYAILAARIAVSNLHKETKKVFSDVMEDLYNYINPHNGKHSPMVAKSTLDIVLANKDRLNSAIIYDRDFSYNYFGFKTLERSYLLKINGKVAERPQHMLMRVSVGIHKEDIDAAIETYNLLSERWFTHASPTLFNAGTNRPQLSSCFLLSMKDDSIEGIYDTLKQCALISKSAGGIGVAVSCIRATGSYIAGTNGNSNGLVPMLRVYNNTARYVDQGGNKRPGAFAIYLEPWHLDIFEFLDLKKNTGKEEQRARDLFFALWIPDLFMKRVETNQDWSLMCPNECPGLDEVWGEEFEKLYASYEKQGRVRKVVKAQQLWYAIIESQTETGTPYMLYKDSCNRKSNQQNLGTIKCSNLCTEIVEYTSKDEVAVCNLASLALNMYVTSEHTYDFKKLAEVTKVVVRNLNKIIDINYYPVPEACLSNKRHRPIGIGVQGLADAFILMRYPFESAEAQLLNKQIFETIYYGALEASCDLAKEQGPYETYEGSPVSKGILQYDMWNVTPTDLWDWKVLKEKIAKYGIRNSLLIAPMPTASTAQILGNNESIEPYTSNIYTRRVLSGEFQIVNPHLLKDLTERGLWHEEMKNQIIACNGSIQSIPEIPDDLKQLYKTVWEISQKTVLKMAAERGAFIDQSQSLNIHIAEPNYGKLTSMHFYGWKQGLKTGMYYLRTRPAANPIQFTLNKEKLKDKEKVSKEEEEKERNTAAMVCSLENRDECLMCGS
The test can be described thus: Inhibition of Human Ribonucleotide Reductase Assay. It is filed as biochemical. As to the method:
Inhibition of Human Ribonucleotide Reductase Assay
(a) Cell line: Hela cells (ATCC CCL 2.2), human epitheloid carcinoma, cervix.
(b) Cell culture: Cells were incubated in a medium consisting of Iscove's Modified Dulbecco Medium, pH 7.2-7.4 (Gibco Canada Inc., Burlington, ON, Canada) supplemented with 10% by volume of fetal calf serum, heat inactivated (Gibco Canada Inc.), 1 millimolar (mM) of sodium pyruvate, 100 units/ml of penicillin G, 100 μg/ml of streptomycin and 2 mM of L-glutamine. The incubation was done in a 1 l spinner flask at 37° C. under a mixture of 5% CO2 in air. Cell-containing media (75% of culture volume) was withdrawn semicontinuously at 24-48 h intervals. Fresh media was added each time to replace withdrawn media. Final cell density at harvest was 1-2×10^6 cells/ml.
(c) Preparation of cell extract containing human ribonucleotide reductase (hRR)
The harvested culture media obtained above was subjected to low speed centrifugation. The resulting cell pellet was processed according to the following steps. (All steps were performed at 4° C. unless noted otherwise.) […]
(a) Standard Reaction Mixture […]
The activity of RR was quantitated by following the conversion of radiolabeled cytidine diphosphate to radiolabeled deoxycytidine diphosphate, i.e. (^14 C)CDP to (^14 C)dCDP. The amount of cell extract utilized in the assay was that which gave a linear response between enzyme concentration and CDP conversion (ca. 200 μg of protein per assay).
After addition of the cell extract, the assay mixture was incubated at 37° C. for 30 min. The reaction was stopped by immersing the vessel containing the assay mixture in boiling water for 4 min. Nucleotides in the supernatant were then converted to nucleosides by the addition of excess Crotalus adamenteus snake venom (ca. 20 μl of a preparation of 40 mg/ml of the venom in an aqueous solution of 14 mM tris(hydroxymethyl)aminomethane (pH 8.8) and 46.5 mM MgCl2), followed by incubating the resulting mixture for 60 min at 37° C. The enzymatic reaction was stopped by immersing the vessel containing the reaction mixture in boiling waster for 6 min. Thereafter, the mixture is centrifuged at 10,000 rpm on a clinical centrifuge for 5 min.
The resulting free nucleosides, cytidine (C) and deoxycytidine (dC), in the supernatant were separated by thin layer chromatography on polyethyleneimine-cellulose plates pretreated with boric acid. Elution of 5 μl samples was accomplished using a solution of ethanol/20 mM aqueous ammonium formate (1:1), pH 4.7. Quantitation of radiolabel migrating as C and dC was carried out using radioanalytical imaging equipment (AMBIS Systems Inc., San Diego, CA, USA). substrate conversion was calculated as: [formula]
A unit of ribonucleotide reductase activity is defined as that amount which reduces one nmole of CDP/minute under the conditions described above. Activity was calculated from substrate conversion using the following relationship: [formula]
The conversion factor for the Hela assay was 0.108. Specific activity was expressed as units/mg of protein in the incubation mixture.
The peptides of formula 1 were tested at a minimum of three concentrations. IC50 's were estimated from graphs plotting the results for each peptide, the IC50 being the concentration of the peptide in micromoles (μM) producing 50% of the maximal inhibition of the enzyme.

Where [1] appears, read: inhibition of human RR assay, list after the table, unit μM, read-out: IC50 (shown in parenthesis).
[2] abbreviates: Hela cell extract, table of Example 4, read-out: IC50.

Read-outs that look alike come from different tables or passages of the source. Non-standard residues stand in square brackets, D forms with d. Residues, ends and D or L forms follow the SMILES beside them. No end group written: not given here. hPhe = N[C@@H](CCc1ccccc1)C(=O)O; NMeD = CN[C@@H](CC(=O)O)C(=O)O; NMeL = CN[C@@H](CC(C)C)C(=O)O; NMeV = CN[C@H](C(=O)O)C(C)C

Drawing on patent publication US5071835A, “Ribonucleotide reductase inhibitors” (Bio-Mega Inc., priority 1989, dated 1991), this text covers IC50 for 24 molecules.

By IC50 is commonly meant the concentration needed to halve the response being measured.

As for `CC(=O)N[C@@H](Cc1ccccc1)C(=O)N(C)[C@H](C(=O)N[C@@H](CC(C)C)C(=O)N[C@@H](CC(=O)O)C(=O)N[C@@H](C)C(=O)N[C@@H](CC(=O)O)C(=O)N[C@@H](Cc1ccccc1)C(=O)O)C(C)C` [AcPhe-N-Me-Val-Leu-Asp-Ala-Asp-Phe-OH] (Ac-F[NMeV]LDADF-OH), the 50% inhibitory concentration (IC50) under setting [1] amounted to 48 µM.

On to `CC(=O)N[C@@H](Cc1ccccc1)C(=O)N[C@H](C(=O)N[C@@H](CC(C)C)C(=O)N[C@@H](CC(=O)N(C)C)C(=O)N[C@@H](C)C(=O)N[C@@H](CC(=O)O)C(=O)N[C@@H](Cc1ccccc1)C(=O)O)[C@@H](C)O` [AcPhe-Thr-Leu-Asp(NMe2)-Ala-Asp-Phe-OH] (Ac-FTLD(NMe2)ADF-OH), for which, under setting [1], the 50% inhibitory concentration (IC50) worked out at 58 µM.

As to `CC(=O)N[C@@H](Cc1ccccc1)C(=O)N[C@H](C(=O)N[C@@H](CC(C)C)C(=O)N[C@@H](CC(=O)O)C(=O)N[C@@H](C)C(=O)N[C@@H](CC(=O)O)C(=O)N[C@@H](CCc1ccccc1)C(=O)O)[C@@H](C)O` [AcPhe-Thr-Leu-Asp-Ala-Asp-homoPhe-OH] (Ac-FTLDAD[hPhe]-OH), the half-maximal inhibitory concentration (IC50) under setting [1] was found to be 58 µM.

In the case of `CC(=O)N[C@@H](Cc1ccccc1)C(=O)N[C@H](C(=O)N[C@@H](CC(C)C)C(=O)N[C@@H](CC(=O)O)C(=O)N[C@@H](C)C(=O)N[C@H](CC(=O)O)C(=O)N[C@@H](Cc1ccccc1)C(=O)O)[C@@H](C)O` [AcPhe-Thr-Leu-Asp-Ala-D-Asp-Phe-OH] (Ac-FTLDA[dD]F-OH), the IC50 under setting [1] stood at 280 µM.

Regarding `CC(=O)N[C@@H](Cc1ccccc1)C(=O)N[C@H](C(=O)N[C@@H](CC(C)C)C(=O)N[C@@H](CC(=O)O)C(=O)N[C@@H](C)C(=O)N(C)[C@@H](CC(=O)O)C(=O)N[C@@H](Cc1ccccc1)C(=O)O)[C@@H](C)O` [AcPhe-Thr-Leu-Asp-Ala-N-Me-Asp-Phe-OH] (Ac-FTLDA[NMeD]F-OH), the IC50 under setting [1] was 46 µM.

Turning to `CC(=O)N[C@@H](Cc1ccccc1)C(=O)N[C@H](C(=O)N[C@@H](CC(C)C)C(=O)N[C@@H](CC(=O)O)C(=O)N[C@H](C)C(=O)N[C@@H](CC(=O)O)C(=O)N[C@@H](Cc1ccccc1)C(=O)O)[C@@H](C)O` [AcPhe-Thr-Leu-Asp-D-Ala-Asp-Phe-OH] (Ac-FTLD[dA]DF-OH), under setting [1], the 50% inhibitory concentration (IC50) amounted to 460 µM.

In the case of `CC(=O)N[C@@H](Cc1ccccc1)C(=O)N[C@H](C(=O)N[C@@H](CC(C)C)C(=O)N[C@H](CC(=O)O)C(=O)N[C@@H](C)C(=O)N[C@@H](CC(=O)O)C(=O)N[C@@H](Cc1ccccc1)C(=O)O)[C@@H](C)O` [AcPhe-Thr-Leu-D-Asp-Ala-Asp-Phe-OH] (Ac-FTL[dD]ADF-OH), the concentration for half-maximal inhibition (IC50) under setting [1] was determined as 200 µM.

For the molecule `CC(=O)N[C@@H](Cc1ccccc1)C(=O)N[C@H](C(=O)N(C)[C@@H](CC(C)C)C(=O)N[C@@H](CC(=O)O)C(=O)N[C@@H](C)C(=O)N[C@@H](CC(=O)O)C(=O)N[C@@H](Cc1ccccc1)C(=O)O)[C@@H](C)O` [AcPhe-Thr-N-Me-Leu-Asp-Ala-Asp-Phe-OH] (Ac-FT[NMeL]DADF-OH), under setting [1], the half-inhibitory concentration (IC50) worked out at 23 µM.

In the case of “Ac-FTFNEDF [AcPhe-Thr-Phe-Asn-Glu-Asp-Phe-OH]”, the half-inhibitory concentration (IC50) under setting [1] was 150 µM.

Consider “Ac-FTLDADF [Example 2, AcPhe-Thr-Leu-Asp-Ala-Asp-Phe-OH]”, for which, under “Hela cell extract, conversion of (14C)CDP to (14C)dCDP, text of Example 3, read-out: IC50”, the half-maximal inhibitory concentration (IC50) turned out to be 38 µM.

Consider “Ac-FTLDEDF [AcPhe-Thr-Leu-Asp-Glu-Asp-Phe-OH]”, for which the IC50 under setting [1] was found to be 28 µM.

In the case of “Ac-FTLDVDF [AcPhe-Thr-Leu-Asp-Val-Asp-Phe-OH]”, the IC50 under setting [1] came out at 39 µM.

Turning to “Ac-FTLFADF [AcPhe-Thr-Leu-Phe-Ala-Asp-Phe-OH]”, the IC50 under setting [1] came out at 73 µM.

Turning to “Ac-FTLGADF [AcPhe-Thr-Leu-Gly-Ala-Asp-Phe-OH]”, the IC50 under setting [1] came out at 150 µM.

On to “Ac-FTLNADF [AcPhe-Thr-Leu-Asn-Ala-Asp-Phe-OH]”, for which the 50% inhibitory concentration (IC50) under setting [1] worked out at 31 µM.

In the case of “Ac-FTLQADF [AcPhe-Thr-Leu-Gln-Ala-Asp-Phe-OH]”, the IC50 under setting [1] turned out to be 120 µM.

With “Ac-NSFTLDADF-OH [Ac--Asn--Ser--Phe--Thr--Leu--Asp--Ala--Asp--Phe--OH]”, the IC50 under setting [2] amounted to 33 µM.

Take “Ac-TENSFTLDADF [AcThr--Glu--Asn--Ser--Phe--Thr--Leu--Asp--Ala--Asp--Phe--OH]”: under setting [2], the IC50 amounted to 83 µM.

In the case of “H-NSTENSFTLDADF-OH [H--Asn--Ser--Thr--Glu--Asn--Ser--Phe--Thr--Leu--Asp--Ala--Asp--Phe--OH]”, the IC50 under setting [2] came out at 62 µM.

For the molecule “H-PTENSFTLDADF-OH [H-Pro-Thr-Glu-Asn-Ser-Phe-Thr-Leu-Asp-Ala-Asp-Phe-OH]”, the 50% inhibitory concentration (IC50) under setting [1] worked out at 41 µM.

As for “H-SPTENSFTLDADF-OH [H-Ser-Pro-Thr-Glu-Asn-Ser-Phe-Thr-Leu-Asp-Ala-Asp-Phe-OH]”, the IC50 under setting [1] was 29 µM.

Regarding “H-SSPTENSFTLDADF-OH [H-Ser-Ser-Pro-Thr-Glu-Asn-Ser-Phe-Thr-Leu-Asp-Ala-Asp-Phe-OH]”, the IC50 under setting [1] came to 26 µM.

“H-TENSFTLDADF-OH [H--Thr--Glu--Asn--Ser--Phe--Thr--Leu--Asp--Ala--Asp--Phe--OH]”: the IC50 under setting [2] was 95 µM.

With “H-VISNSTENSFTLDADF-OH [H--Val--Ile--Ser--Asn--Ser--Thr--Glu--Asn--Ser--Phe--Thr--Leu--Asp--Ala--Asp--Phe--OH]”, under setting [2], the half-maximal inhibitory concentration (IC50) came out at 49 µM.
